Data on 5 compounds can be found in US9802928B2 (Merck Sharp & Dohme Corp., priority 2013, dated 2017).

Experiment [1] deals with soluble human BACE1 catalytic domain (Homo sapiens (Human), UniProt P56817). The experiment in a line: BACE1 HTRF FRET Assay. The class given is biochemical. As to conditions: Ki calculated from IC50 using the Cheng-Prusoff equation; QSY7-APPswe-Eu substrate, pH 5.0. The text has this:
Na^+-Acetate pH 5.0; 1% Brij-35; Glycerol; Dimethyl Sulfoxide (DMSO); Recombinant human soluble BACE1 catalytic domain (>95% pure); APP Swedish mutant peptide substrate (QSY7-APP^swe-Eu): QSY7-[…]-Europium-amide.
A homogeneous time-resolved FRET assay can be used to determine IC50 values for inhibitors of the soluble human BACE1 catalytic domain. This assay monitors the increase of 620 nm fluorescence that resulted from BACE1 cleavage of an APPswedish APP^swe mutant peptide FRET substrate (QSY7-[…]-Europium-amide). This substrate contains an N-terminal QSY7 moiety that serves as a quencher of the C-terminal Europium fluorophore (620 nm Em). In the absence of enzyme activity, 620 nm fluorescence is low in the assay and increased linearly over 3 hours in the presence of uninhibited BACE1 enzyme Inhibition of BACE1 cleavage of the QSY7-APP^swe-Eu substrate by inhibitors is manifested as a suppression of 620 nm fluorescence.
Varying concentrations of inhibitors at 3× the final desired concentration in a volume of 10 ul are preincubated with purified human BACE1 catalytic domain (3 nM in 10 μl) for 30 minutes at 30° C. in reaction buffer containing 20 mM Na-Acetate pH 5.0, 10% glycerol, 0.1% Brij-35 and 7.5% DSMO. Reactions are initiated by addition of 10 μl of 600 nM QSY7-APP^swe-Eu substrate (200 nM final) to give a final reaction volume of 30 μl in a 384 well Nunc HTRF plate. The reactions are incubated at 30° C. for 1.5 hours. The 620 nm fluorescence is then read on a Rubystar HTRF plate reader (BMG Labtechnologies) using a 50 millisecond delay followed by a 400 millisecond acquisition time window. Inhibitor IC50 values are derived from non-linear regression analysis of concentration response curves. Ki values are then calculated from IC50 values using the Cheng-Prusoff equation using a previously determined […] of 8 μM for the QSY7-APP^swe-Eu substrate at BACE1.

For experiment [2], the target named is purified human autoBACE-2 (Homo sapiens (Human), UniProt Q9Y5Z0). The experiment in a line: BACE-2 Assay (BACE-HTRF assay). Format: biochemical. As to conditions: Ki calculated from IC50 using the Cheng-Prusoff equation; QSY7-EISEVNLDAEFC-Eu-amide substrate, pH 5.0; read-out: BACE2 Ki. On the procedure:
Inhibitor IC50s at purified human autoBACE-2 are determined in a time-resolved endpoint proteolysis assay that measures hydrolysis of the QSY7-EISEVNLDAEFC-Eu-amide FRET peptide substrate (BACE-HTRF assay). BACE-mediated hydrolysis of this peptide results in an increase in relative fluorescence (RFU) at 620 nm after excitation with 320 nm light. Inhibitor compounds, prepared at 3× the desired final concentration in 1×BACE assay buffer (20 mM sodium acetate pH 5.0, 10% glycerol, 0.1% Brij-35) supplemented with 7.5% DMSO are pre-incubated with an equal volume of autoBACE-2 enzyme diluted in 1×BACE assay buffer (final enzyme concentration 1 nM) in black 384-well NUNC plates for 30 minutes at 30° C. The assay is initiated by addition of an equal volume of the QSY7-EISEVNLDAEFC-Eu-amide substrate (200 nM final concentration, Km=8 μM […] for autoBACE-2) prepared in 1×BACE assay buffer supplemented with 7.5% DMSO and incubated for 90 minutes at 30° C. DMSO is present at 5% final concentration in the assay. Following laser excitation of sample wells at 320 nm, the fluorescence signal at 620 nm is collected for 400 ms following a 50 μs delay on a RUBYstar HTRF plate reader (BMG Labtechnologies). Raw RFU data is normalized to maximum (1.0 nM BACE/DMSO) and minimum (no enzyme/DMSO) RFU values. IC50s are determined by nonlinear regression analysis (sigmoidal dose response, variable slope) of percent inhibition data with minimum and maximum values set to 0 and 100 percent respectively. Similar IC50s are obtained when using raw RFU data. The Ki values are calculated from the IC50 using the Cheng-Prusoff equation.

Each structure is given as a SMILES string.

soluble human BACE1 catalytic domain, sequence (P56817 75-416): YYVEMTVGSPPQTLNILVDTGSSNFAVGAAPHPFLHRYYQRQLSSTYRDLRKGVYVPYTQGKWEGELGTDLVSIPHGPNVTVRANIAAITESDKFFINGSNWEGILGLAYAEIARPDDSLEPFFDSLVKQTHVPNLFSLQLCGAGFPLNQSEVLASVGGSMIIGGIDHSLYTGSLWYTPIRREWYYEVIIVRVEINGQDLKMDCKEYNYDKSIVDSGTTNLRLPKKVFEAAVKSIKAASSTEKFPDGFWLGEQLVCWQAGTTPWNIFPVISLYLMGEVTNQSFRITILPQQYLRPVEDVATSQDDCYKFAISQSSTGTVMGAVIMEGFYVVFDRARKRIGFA
purified human autoBACE-2, sequence (Q9Y5Z0 63-473 limits assumed): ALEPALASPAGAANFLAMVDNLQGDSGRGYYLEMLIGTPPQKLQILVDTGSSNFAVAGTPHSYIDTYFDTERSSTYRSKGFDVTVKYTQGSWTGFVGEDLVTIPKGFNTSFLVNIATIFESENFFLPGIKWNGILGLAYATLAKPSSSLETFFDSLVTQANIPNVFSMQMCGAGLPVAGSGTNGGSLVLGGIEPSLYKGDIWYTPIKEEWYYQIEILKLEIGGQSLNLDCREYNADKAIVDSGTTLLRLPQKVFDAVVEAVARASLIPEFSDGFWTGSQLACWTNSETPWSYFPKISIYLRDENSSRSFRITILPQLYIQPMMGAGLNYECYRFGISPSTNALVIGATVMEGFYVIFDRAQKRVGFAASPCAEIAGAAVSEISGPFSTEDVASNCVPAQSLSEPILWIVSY

Regarding `CN1C(=N)N[C@](C)(c2cc(NC(=O)c3cnc(OCCF)cn3)ccc2F)C2(CC2)S1(=O)=O` [Example 1t, 5-(2-fluoroethoxy)-N-{4-fluoro-3-[(8R)-6-imino-5,8-dimethyl-4,4-dioxido-4-thia-5,7-diazaspiro[2.5]oct-8-yl]phenyl}pyrazine-2-carboxamide], the results for the inhibition constant Ki in experiment [1] and in experiment [2] were 42 nM and 285 nM, respectively.

For the compound `Cc1nc(C(=O)Nc2ccc(F)c([C@@]3(C)NC(=N)N(C)S(=O)(=O)C34CC4)c2)c(C)o1` [Example 1u, N-{4-fluoro-3-[(8R)-6-imino-5,8-dimethyl-4,4-dioxido-4-thia-5,7-diazaspiro[2.5]oct-8-yl]phenyl}-2,5-dimethyl-1,3-oxazole-4-carboxamide], the Ki – broadly, the equilibrium dissociation constant of an inhibitor or competing ligand from its target – in experiment [1] was 25 nM; in experiment [2], 8 nM.

As for `CN1C(=N)N[C@](C)(c2cc(NC(=O)c3cn4ccsc4n3)ccc2F)C2(CC2)S1(=O)=O` [Example 1v, N-{4-fluoro-3-[(8R)-6-imino-5,8-dimethyl-4,4-dioxido-4-thia-5,7-diazaspiro[2.5]oct-8-yl]phenyl}imidazo[2,1-b][1,3]thiazole-6-carboxamide], the Ki was 232 nM in experiment [1] and 63 nM in experiment [2].

Regarding `CN1C(=N)N[C@](C)(c2cc(NC(=O)c3cnc(OCC(F)(F)F)cn3)ccc2F)C2(CC2)S1(=O)=O` [Example 1w, N-{4-fluoro-3-[(8R)-6-imino-5,8-dimethyl-4,4-dioxido-4-thia-5,7-diazaspiro[2.5]oct-8-yl]phenyl}-5-(2,2,2-trifluoroethoxy)pyrazine-2-carboxamide], the inhibitory constant (Ki) in experiment [1] was 6 nM; in experiment [2] it was 159 nM.

Consider `CN1C(=N)N[C@](C)(c2cc(NC(=O)c3ccc(Cl)cn3)ccc2F)C2(CC2)S1(=O)=O` [Example 2, 5-chloro-N-{4-fluoro-3-[(8R)-6-imino-5,8-dimethyl-4,4-dioxido-4-thia-5,7-diazaspiro[2.5]oct-8-yl]phenyl}pyridine-2-carboxamide], for which the values for the Ki in experiment [1] and in experiment [2] were 5 nM and 2 nM, respectively.
